Data as given in patent publication US20130261133A1, “Therapeutic Compounds for Protozoal and Microbial Infections and Cancer” (THE UNIVERSITY OF MONTANA, priority 2012, published 2013).

The compounds below were run on Leishmania donovani (assay: Antileishmanial assay, Leishmania in infected macrophages (L. donovani)). Details: Leishmania donovani, Macrophage, read-out: IC50 Leishmania in infected macrophages.

| Structure (SMILES) | IC50 [nM] |
| --- | --- |
| C=C[C@@H](C#CC#CC(CCCCCCCCC)NC(=O)c1ccc(Cl)cc1)OC(C)=O (stereo in doubt) [Compound 39, (3S,8R)-8-(4-chlorobenzamido)heptadeca-1-en-4,6-diyn-3-yl acetate] | 112 |
| C=C[C@@H](C#CC#CC(CCCCCCCCC)NC(=O)c1ccc(Cl)c(Cl)c1)OC(C)=O (stereo in doubt) [Compound 40, (3S,8R)-8-(3,4-dichlorobenzamido)heptadeca-1-en-4,6-diyn-3-yl acetate] | 428 |
| C=C[C@@H](C#CC#CC(CCCCCCCCC)NC(=O)c1ccc(C)cc1)OC(C)=O (stereo in doubt) [Compound 41, (3S,8R)-8-(4-methylbenzamido)heptadeca-1-en-4,6-diyn-3-yl acetate] | 126 |
| C=C[C@@H](C#CC#CC(CCCCCCCCC)NC(=O)c1ccc(OC)cc1)OC(C)=O (stereo in doubt) [Compound 42, (3S,8R)-8-(4-methoxybenzamido)heptadeca-1-en-4,6-diyn-3-yl acetate] | 165 |
| C=C[C@H](O)C#CC#C[C@@H](CCCCCCCCC)NCCCC [Compound 55, (3S,8R)-8-(butylamino)heptadeca-1-en-4,6-diyn-3-ol] | 3 |
| C=C[C@H](O)C#CC#C[C@@H](CCCCCCCCC)NC(=O)c1ccccc1 [Compound 56, N-((3S,8R)-3-hydroxyheptadeca-1-en-4,6-diyn-8-yl)benzamide] | 5 |
| C=C[C@H](O)C#CC#C[C@@H](CCCCCCCCC)NC(=O)OCC [Compound 57, ethyl((3S,8R)-3-hydroxyheptadeca-1-en-4,6-diyn-8-yl)carbamate] | 10 |
| C=C[C@H](O)C#CC#C[C@@H](CCCCCCCCC)OC [Compound 58, (3S,8R)-8-methoxyheptadeca-1-en-4,6-diyn-3-ol] | 11 |
| C=C[C@H](O)C#CC#C[C@@H](CCCCCCCCC)NC(C)=O [Compound 59, N-((3S,8R)-3-hydroxyheptadeca-1-en-4,6-diyn-8-yl)acetamide] | 18 |
| C=C[C@@H](C#CC#C[C@@H](CCCCCCCCC)NC(=O)c1cc(C)on1)OC(C)=O [Compound 61, (3S,8R)-8-(5-methylisoxazole-3-carboxamido)heptadeca-1-en-4,6-diyn-3-yl acetate] | 77 |
| C=C[C@@H](C#CC#C[C@@H](CCCCCCCCC)NC(=O)c1ccccn1)OC(C)=O [Compound 62, (3S,8R)-8-(picolinamido)heptadeca-1-en-4,6-diyn-3-yl acetate] | 89 |
| C=C[C@@H](C#CC#C[C@@H](CCCCCCCCC)NC(=O)c1cnccn1)OC(C)=O [Compound 63, (3S,8R)-8-(pyrazine-2-carboxamido)heptadeca-1-en-4,6-diyn-3-yl acetate] | 42 |
| C=C[C@@H](C#CC#C[C@@H](CCCCCCCCC)NC(=O)c1ccccc1Cl)OC(C)=O [Compound 64, (3S,8R)-8-(2-chlorobenzamido)heptadeca-1-en-4,6-diyn-3-yl acetate] | 109 |
| C=C[C@@H](C#CC#C[C@@H](CCCCCCCCC)NC(=O)c1cccc(Br)c1)OC(C)=O [Compound 65, (3S,8R)-8-(3-bromobenzamido)heptadeca-1-en-4,6-diyn-3-yl acetate] | 184 |
| C=C[C@@H](C#CC#C[C@@H](CCCCCCCCC)NC(=O)c1cccc(C)c1)OC(C)=O [Compound 66, (3S,8R)-8-(3-methylbenzamido)heptadeca-1-en-4,6-diyn-3-yl acetate] | 120 |
| C=C[C@@H](C#CC#C[C@@H](CCCCCCCCC)NC(=O)c1ccc(F)cc1)OC(C)=O [Compound 67, (3S,8R)-8-(4-fluorobenzamido)heptadeca-1-en-4,6-diyn-3-yl acetate] | 72 |
| C=C[C@@H](C#CC#C[C@@H](CCCCCCCCC)NC(=O)c1cccc(C(F)(F)F)c1)OC(C)=O [Compound 68, (3S,8R)-8-(3-(trifluoromethyl)benzamido)heptadeca-1-en-4,6-diyn-3-yl acetate] | 191 |
| C=C[C@@H](C#CC#C[C@@H](CCCCCCCCC)NC(=O)c1ccco1)OC(C)=O [Compound 69, (3S,8R)-8-(furan-2-carboxamido)heptadeca-1-en-4,6-diyn-3-yl acetate] | 50 |
| C=C[C@@H](C#CC#C[C@@H](CCCCCCCCC)NC(=O)c1cc(Cl)cc(Cl)c1)OC(C)=O [Compound 70, (3S,8R)-8-(3,5-dichlorobenzamido)heptadeca-1-en-4,6-diyn-3-yl acetate] | 252 |
| C=C[C@@H](C#CC#C[C@@H](CCCCCCCCC)N=C=S)OC(C)=O [Compound 71, (3S,8R)-8-isothiocyanatoheptadeca-1-en-4,6-diyn-3-yl acetate] | 21600 |
| C=C[C@@H](C#CC#C[C@@H](CCCCCCCCC)NC(=O)CCCOCc1ccccc1)OC(C)=O [Compound 72, (3S,8R)-8-(4-(benzyloxy)butanamido)heptadeca-1-en-4,6-diyn-3-yl acetate] | 529 |
| CCCCCCCCC[C@H](C#CC#C[C@@H](O)C1CC1)NCCCC [Compound 74, (1S,6R)-6-(butylamino)-1-cyclopropylpentadeca-2,4-diyn-1-ol] | 722 |
| C/C=C/[C@H](O)C#CC#C[C@@H](CCCCCCCCC)NCCCC [Compound 75, (4S,9R,E)-9-(butylamino)octadeca-2-en-5,7-diyn-4-ol] | 31 |
| CCCCCCCCC[C@H](C#CC#C[C@@H](O)c1ccccc1)NCCCC [Compound 76, (1S,6R)-6-(butylamino)-1-phenylpentadeca-2,4-diyn-1-ol] | 113 |
| CCCCCCCCC[C@H](C#CC#C[C@@H](O)c1ccc(OCC)cc1)NCCCC [Compound 77, (1S,6R)-6-(butylamino)-1-(4-ethoxyphenyl)pentadeca-2,4-diyn-1-ol] | 443 |
| C=C[C@H](O)C#CC#C[C@@H](CCCCCCCCC)NCC [Compound 78, (3S,8R)-8-(ethylamino)heptadeca-1-en-4,6-diyn-3-ol] | 30 |
| C=C[C@@H](C#CC#C[C@@H](CCCC1CCCCC1)NC(=O)c1ccccc1)OC(C)=O [Compound 79, (3S,8R)-8-benzamido-11-cyclohexylundeca-1-en-4,6-diyn-3-yl acetate] | 27 |
